Columns and labels:
K562 cells [1] = experiment: Complement-dependent cytotoxicity (CDC), antibody + normal human serum, PI inclusion/FACS; format: cell-based; conditions: summary of in vitro effects
Procedure: K562 cells were either pre-incubated with peptides (60 minutes at 37° C.) and then treated with Rabbit anti-K562 polyclonal antiserum (Ab) and normal human serum (as a source for complement) or treated with Ab and complement in presence of the peptide [Ziporen et al. J. Immunol. (2009) 182: 515-21]. Cell death was measured by PI (Propidium Iodide) inclusion and FACS analysis, after 1 hour treatment at 37° C. The effect of the peptides on complement-dependent cytotoxicity—The next objective was to determine which of the peptides could alter cell death and sensitize cancer cells to complement-dependent cytotoxicity (CDC). Thus, cells were incubated with the peptides prior to antibody and complement treatment (denoted herein as pre-incubation) or treated concomitantly with antibody and complement in the presence of the peptides (denoted herein as without pre-incubation). It should be noted that in cases where the peptide was incubated with the cells prior to addition of the antibody and complement (serum) (noted as “preincubation”) cell cytotoxicity begins as complement independent, and then, upon addition of the antibody and complement can continue as complement dependent. […]

Purified human C9 = Purified human C9 (Homo sapiens, UniProt P02748); experiment: Zinc-induced C9 polymerization, SDS-PAGE/Coomassie; format: biochemical
Chain of Purified human C9 (P02748 22-559): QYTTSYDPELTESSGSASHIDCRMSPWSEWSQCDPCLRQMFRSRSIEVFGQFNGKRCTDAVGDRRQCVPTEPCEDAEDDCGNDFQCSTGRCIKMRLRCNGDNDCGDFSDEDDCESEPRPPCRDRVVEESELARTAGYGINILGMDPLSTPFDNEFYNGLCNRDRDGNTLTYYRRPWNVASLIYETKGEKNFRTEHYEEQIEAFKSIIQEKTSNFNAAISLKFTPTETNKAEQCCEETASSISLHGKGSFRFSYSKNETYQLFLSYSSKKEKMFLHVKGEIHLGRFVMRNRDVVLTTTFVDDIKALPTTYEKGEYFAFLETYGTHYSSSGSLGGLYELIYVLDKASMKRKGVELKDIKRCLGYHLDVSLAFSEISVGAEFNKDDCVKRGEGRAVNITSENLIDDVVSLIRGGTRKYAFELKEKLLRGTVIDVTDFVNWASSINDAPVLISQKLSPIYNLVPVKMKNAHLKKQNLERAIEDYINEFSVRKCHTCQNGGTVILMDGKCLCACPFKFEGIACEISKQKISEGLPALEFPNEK
Procedure: FIGS. 2A-B are Coomassie blue stained gels depicting inhibition of C9 polymerization by mortalin or the isolated mortalin peptides. Purified human C9 ([…]) was mixed for 15 minutes at 37° C. with BSA ([…]) as control (lanes marked as “BSA”), mortalin ([…], lanes marked as “mot”) or mortalin peptides (1 mM, lanes marked by “p” and the indicated peptide numbers) that were freshly dissolved in Tris buffered saline (TBS); and then incubated with 42 μM ZnCl2 for 2 hours at 37° C. The first lane on the left, marked “C9” refers to a positive control of the purified C9 without BSA, without mortalin or without the isolated peptides. Samples were subjected to SDS-PAGE on a 2.5-14% acrylamide gradient gel and stained with Coomassie blue. The bands of poly C9 appearing on the top part of the gel are indicated. FIGS. 2A and 2B represent two independent experiments.
The effect of the peptides on C9 polymerization—Formation of the complement membrane pores requires that multiple C9 molecules undergo polymerization and generate the doughnut-shape transmembrane complex; thus the effect of the peptides on C9 polymerization was tested. C9 polymerization occurs during C5b-9 generation [Podack and Tschopp, Proc Natl Acad Sci USA. (1982) 79(2):574-8]. […] C9 was mixed with peptides and 42 μM ZnCl2 for 2 hours and the samples were analyzed by SDS-PAGE, on a 2.5-14% acrylamide gradient gel. […]

[2] = system: leukemia and lymphoma cell lines; experiment: Direct cell killing / direct toxicity (complement independent), overall statement; format: cell-based; parameters: key: ↑: enhance; ↓: inhibit; ↑↓: effect depends on dose/time; —: no effect; conditions: summary of in vitro effects; complement independent cytotoxicity; cell lines and primary B-CLL cells
Procedure: The toxic effect of these peptides was tested on 3 leukemia/lymphoma cell lines Raji (FIG. 5), Ramos (FIG. 6) and Z-138 (FIG. 7). The cells were treated for 24 hours with the peptides and cell death was determined by propidium iodide labeling and analysis by flow cytometry.
In summary, Table 6 below illustrates the relative effects of some of the peptides on mortalin-C9 binding, C9 polymerization, complement-dependent cytotoxicity and complement independent cytotoxicity (direct toxicity).

[3] = system: primary B-CLL leukemia cells; experiment: Direct cell killing of primary leukemia cell preparations, PI flow cytometry; format: cell-based, human; conditions: peptides with TAT sequence at C-terminal, 20 hours, 50 µM concentration
Procedure: (§1) FIG. 8 is a histogram depicting cell death of B-CLL leukemia cells by mortalin peptides. […] Mortalin peptides numbers 2, 7, 8, 10, 14 and 16 and a scrambled control peptide (PC) were tested. […] Following, the cells were labeled with PI and analyzed by Flow Cytometry. Percent of dead cells (PI positive) was calculated.
as §1, with “FIG. 9” for “FIG. 8”
FIG. 10 is a histogram depicting cell death of B-CLL leukemia cells by mortalin peptides. […] Following, the cells were labeled with PI and analyzed by Flow Cytometry. Percent of dead cells (PI positive) was calculated.
FIG. 11 is a histogram depicting cell death of B-CLL leukemia cells and normal mononuclear cells by mortalin peptides. […] Following, the cells were labeled with PI and analyzed by Flow Cytometry. Percent of dead cells (PI positive) was calculated.
Blood drawing from B-CLL patients was approved by the Helsinki Committee of Rabin Medical Center, Petach Tikvah, Israel. […] The cells were treated for 20 hours with the peptides at […] concentration and cell death was determined by propidium iodide labeling and analysis by flow cytometry. […]

mortalin-C9 binding = mortalin-C9 binding (Homo sapiens, UniProt P02748); experiment: ELISA of mortalin binding to C9 with or without mortalin peptides; parameters: key: ↑: enhance; ↓: inhibit; ↑↓: effect depends on dose/time; —: no effect; conditions: summary of in vitro effects
Chain of mortalin-C9 binding (P02748 22-559): as above
Procedure: FIG. 1 is a histogram depicting results of ELISA (enzyme-linked immunosorbent assay) which detected binding of mortalin to C9 in the presence or absence of various mortalin peptides. Purified human C9 (0.057 μM) was attached overnight at 4° C. to wells of a 96-wells plate and then the excess of C9 was washed. Following, His-tagged recombinant mortalin (0.007 μM) was added to the wells for 1 hour at 37° C. with or without the designated peptides (each at a concentration of 170 μM), which were dissolved in 1% BSA (bovine serum albumin). Following incubation with the mortalin and peptides the wells were washed, treated for 1 hour at 37° C. with mouse anti-His antibody (diluted 1:1000) followed by 1 hour incubation at room temperature with peroxidase-labeled goat anti-mouse IgG (diluted 1:10,000), developed with O-phenylenediamine (OPD) and analyzed by an ELISA reader at 492 nm. […]
Methods of detecting the binding between mortalin and C9 are known in the art [Pilzer et al. Int Immunol (2005) 17:1239-1248; Pilzer et al. Int J Cancer (2010). […] After incubation of the C9 and mortalin, the excess of the labeled mortalin and of the peptide is removed by washing the plate, and the amount of labeled mortalin which is bound to the surface-attached C9 protein is determined using an anti-His antibody (e.g., a mouse anti-His antibody). […]

K562 cells [4] = experiment: Complement independent cytotoxicity, Annexin V/PI, FACS; format: cell-based, human; conditions: stand-alone treatment, 0.8 mM, 24 hours
Procedure: (§2) Raji or K562 cells were treated without (C) or with 2 mM peptides for 48 hours in their culture medium. Then, the cells were labeled with Annexin/PI and analyzed by Flow Cytometry. FIG. 3A—a histogram depicting the percent of dead cells (Annexin and PI positive) as calculated. FIGS. 3B-D—representative images of cells in control (FIG. 3B) and peptide-treated groups [FIG. 3C (treated with peptide no. 14) and FIG. 3D (treated with peptide no. 16)] stained by DAPI and observed under a fluorescence microscope.
(§3) The complement independent cytotoxic effect of the peptides—To address the toxic effect of the peptides as single agents, the present inventor tested the effect of the peptides no. 14 and 16 on K562 and Raji human cancer cells. The cells were incubated with the peptides for 24-48 hours in growth medium and then tested for apoptosis using an Annexin V/PI (Propidium Iodide) staining kit followed by FACS analysis.

Raji cells = experiment: as above; format: cell-based, human; conditions: stand-alone treatment, 0.8 mM, 24 hours
Description: as §2, with “Then,” for “Raji or K562 cells were treated without (C) or with 2 mM peptides for 48 hours in their culture medium. Then,”
as §3

| Compound | Effect on CDC (K562 cells [1]) | effect on C9 polymerization (Purified human C9; peptides 1 mM, mortalin 1.4 mM, 42 μM ZnCl2, 2 hours, 37° C., poly C9 band on gel) | C9 polymerization (Purified human C9; summary of in vitro effects) | Direct toxicity [2] | cell killing effect on primary leukemia cells [3] | Mortalin-C9 binding (mortalin-C9 binding) | capacity to induce apoptosis, TAT-modified versus native peptide no: 14 (K562 cells [4]) | capacity to induce apoptosis, TAT-modified versus native peptide no: 14 (Raji cells) |
| --- | --- | --- | --- | --- | --- | --- | --- | --- |
| Mortalin: human mortalin protein, member of the HSP70 family (SEQ ID NO: 24), recombinant | ↓↓↓ | completely inhibited C9 polymerization | ↓↓↓ | — |  |  |  |  |
| CSCC[C@H](NC(=O)[C@H](Cc1ccc(O)cc1)NC(=O)[C@H](CC(C)C)NC(=O)[C@H](CCC(=O)O)NC(=O)[C@H](CO)NC(=O)[C@H](CCCCN)NC(=O)[C@H](C)NC(=O)[C@H](CCCCN)NC(=O)[C@H](CCC(=O)O)NC(=O)[C@H](C)NC(=O)[C@H](C)NC(=O)[C@H](CCC(=O)O)NC(=O)[C@H](CCCNC(=N)N)NC(=O)[C@@H](NC(=O)[C@H](CCCNC(=N)N)NC(=O)[C@H](CCC(N)=O)NC(=O)[C@H](CC(C)C)NC(=O)[C@H](C)NC(=O)[C@H](CCSC)NC(=O)[C@@H](N)CC(N)=O)C(C)C)C(=O)NCC(=O)N[C@@H](CCCNC(=N)N)C(=O)N[C@@H](CCCCN)C(=O)N[C@@H](CCCCN)C(=O)N[C@@H](CCCNC(=N)N)C(=O)N[C@@H](CCCNC(=N)N)C(=O)N[C@@H](CCC(N)=O)C(=O)N[C@@H](CCCNC(=N)N)C(=O)N[C@@H](CCCNC(=N)N)C(=O)N[C@@H](CCCNC(=N)N)C(=O)O [Peptide 8, NMALQRVREAAEKAKSEL] |  |  |  | ↑ (*)— | cell killing effect | — |  |  |
| MVKNAEKYAEEDRYMGRKKRRQRRR (synthetic peptide (TAT modified peptide 14)) [TAT-peptide no: 14] |  |  |  |  |  |  | markedly enhanced the capacity of peptide no: 14 to induce apoptosis | markedly enhanced the capacity of peptide no: 14 to induce apoptosis |
